Measurements from patent publication US8202998B2, “Salts of benzimidazolyl pyridyl ethers and formulations thereof” (Novartis AG, priority 2006, dated 2012).
Converted amounts (≈) assume the structure as drawn.

How the values were obtained:
[1] = Apparent pKa by pH profile solubility study; assay type: physicochemical; settings: determined by a pH profile solubility study
Source text: The apparent pKa of the compound of Formula I refers to the apparent ionization constant of the compound of Formula I as determined by a pH profile solubility study. Thus, the apparent pKa of the compound of Formula I is a complex term consisting of three overlapping ionization constants of the basic nitrogens in Formula I.

[2] = pH of 1% solution or suspension; assay type: physicochemical; settings: In water
[3] = Bioavailability study of API and salts of API in dogs; assay type: in vivo, beagle dogs; settings: single 100 mg oral dose
Protocol: For comparison, a microemulsion of the free base was also studied. The study was performed with 4 dogs, weighing 9-15 kg each. A crossover design with a washout period of at least 1 week was used. The dogs were given a single oral dose of 100 mg of test compound, administered under fasting conditions.

[4] = Polymorphism behavior: crystal modification after 24 hours equilibration; assay type: physicochemical
Protocol: A suspension of 6 mg of drug substance in 300 μl of solvent is prepared. Samples are agitated for ≧24 hour at 22° C.±2° C. The solids are collected and investigated for changes.

[5] = Determination of solubility at 25° C.; assay type: physicochemical; settings: for solubility: thermodynamic from solid
Protocol: Excess solids were equilibrated in each solvent for over 24 hours at 25° C.±0.1. Concentration in aqueous supernatant was measured by UV and HPLC and concentrations in organic solvents by gravimetry.

[6] = Stability: degradation products (DP) and appearance (color) under stress conditions; assay type: physicochemical; design: key to CL: A: No change of color; B: Slight discoloration; C: Medium discoloration; D: Strong discoloration; ↓: Suspension; *: Clear solution after stress test; —: no change; x: test not performed
Protocol: Column: Symmetry C18 (Waters), 3.5 μm, 3×150 mm
Mobile phase: A=0.1% TFA in water; B=acetonitrile
Gradient: 20 to 100% B in 10 minutes
Column temperature: 40° C.
Stability of the three salts with respect to color and degradation products were assessed under various conditions.

[7] = Hygroscopicity (sorption/desorption); assay type: physicochemical
Protocol: Sorption/desorption isotherms were measured using VTI vapor sorption device (DVS-1). Measurements were carried out at 25° C.

[8] = Thermogravimetry / loss on drying; assay type: physicochemical
[9] = Effect of grinding on morphic properties; assay type: physicochemical
[10] = Aqueous solubility of API as a function of pH (shake flask method); assay type: physicochemical; settings: for solubility at 5 days: aqueous HCl or NaOH solution, ionic strength 0.15 (KCl), thermodynamic from solid, room temperature
Protocol: The aqueous solubility of the compound of Formula I was assessed as a function of pH. Solubility of the compound of Formula I was determined using the shake flask method. The following aqueous solutions of hydrochloric acid (HCl) were prepared: 100, 33.3, 11.1, 3.7, 1.2, 0.4, and 0 mM. The following aqueous solutions of sodium hydroxide (NaOH) were prepared: 1.2 and 0.4 mM. The ionic strength of each of these solutions was adjusted to 0.15 using potassium chloride. Excess amounts of the compound of Formula I were added to a 1 mL aliquot of each of the above solutions in 1.5-mL polypropylene tubes. The tubes were agitated at room temperature for 5 days before analysis. On the day of analysis, the tubes were centrifuged at 15,000 revolutions per minute (rpm) using a microcentrifuge at 22° C. for 20 minutes. The concentration of compound of Formula I in the supernatant was measured by HPLC. The pH of the supernatant was measured using an Orion pH meter, which was calibrated before use.

[11] = Intrinsic dissolution rate; assay type: physicochemical; settings: 37° C.
Protocol: The intrinsic dissolution rate measurements were carried out in 0.5 cm^2 VanKel die assemblies and a pellet pressure of 1 ton. The dissolution was measured using a Cary 50 spectrophotometer with a stirring rate of 200 rpm. The solution medium was held at 37° C. and measurements were made at 276 nm.

[12] = Aqueous solubility of salts in deionized water
[13] = beagle, dog, plasma, fasting, mean and sd
[14] = 0.1% solutions or suspensions, 1 week 80° C. or 50° C., Methanol
[15] = 0.1% solutions or suspensions, 1 week 80° C. or 50° C., Water
[16] = 0.1% solutions or suspensions, 1 week 80° C. or 50° C., pH 1
[17] = 0.1% solutions or suspensions, 1 week 80° C. or 50° C., pH 3
[18] = 0.1% solutions or suspensions, 1 week 80° C. or 50° C., pH 5
[19] = 0.1% solutions or suspensions, 1 week 80° C. or 50° C., pH 7
[20] = 0.1% solutions or suspensions, 1 week 80° C. or 50° C., pH 9
[21] = 0.1% solutions or suspensions, 1 week 80° C. or 50° C., pH 11
[22] = 1-2 weeks 50° C., tight container, 1% in mixture 1
[23] = 1-2 weeks 50° C., tight container, 1% in mixture 2
[24] = 1-2 weeks 50° C./75% r.h., 1% in mixture 1
[25] = 1-2 weeks 50° C./75% r.h., 1% in mixture 2
[26] = Solid stage, 1 week 80° C., tight container, Bulk (HPLC)
[27] = Xenon light (approx. 1200 kLuxh), Bulk (HPLC)
[28] = deionized water, water, thermodynamic from solid

Cn1c(Nc2ccc(C(F)(F)F)cc2)nc2cc(Oc3ccnc(-c4ncc(C(F)(F)F)[nH]4)c3)ccc21 [API, {1-methyl-5-[2-(5-trifluoromethyl-1H-imidazol-2-yl)-pyridin-4-yloxy]-1H-benzoimidazol-2-yl}-(4-trifluoromethyl-phenyl)amine]
pKa [1]: ~4.7
pH of 1% solution or suspension [2]: 5.5
AUC(0-inf) [3, 13]: 5310 ± 4510 ng·h/mL
Cmax [3, 13]: 62.9 ± 74.4 ng/mL
Tmax ([3]; beagle, dog, plasma, fasting, median): 16 h
Tlag ([3]; fasting, median): 1.0 h
Absolute F ([3]; relative to an iv dose of 1.25 mg/kg): 2.32 ± 1.97
Crystal modification after 24 hours equilibration (DSC/XRPD/TG) ([4]; 2-propanol): No change
Crystal modification after 24 hours equilibration (DSC/XRPD/TG) ([4]; Acetone): No change
Crystal modification after 24 hours equilibration (DSC/XRPD/TG) ([4]; Acetonitrile): Change
Crystal modification after 24 hours equilibration (DSC/XRPD/TG) ([4]; Ethanol): No change
Crystal modification after 24 hours equilibration (DSC/XRPD/TG) ([4]; Ethyl acetate): No change
Crystal modification after 24 hours equilibration (DSC/XRPD/TG) ([4]; Methanol): No change
Crystal modification after 24 hours equilibration (DSC/XRPD/TG) ([4]; PEG400): No change
Crystal modification after 24 hours equilibration (DSC/XRPD/TG) ([4]; Water): Change
solubility ([5]; 0.1N HCl, 25 °C, simulated gastric fluid, read-out: Solubility (approx. at 25° C.) (HPLC)): 200 µg/mL (≈ 386 µM)
solubility ([5]; acetonitrile, 25 °C, organic solvent or mixture, read-out: Solubility (approx. at 25° C.)): 5200 µg/mL (≈ 10000 µM)
solubility ([5]; aqueous medium at pH 3, 25 °C, pH 3, aqueous buffer, read-out: Solubility (approx. at 25° C.) (HPLC)): 0.06 µg/mL (≈ 0.116 µM)
solubility ([5]; aqueous medium at pH 4.5, 25 °C, pH 4.5, aqueous buffer, read-out: Solubility (approx. at 25° C.) (HPLC)): 0.09 µg/mL (≈ 0.174 µM)
Solid ([5]; line after Water under Solubility): No change
solubility ([5]; methanol, 25 °C, organic solvent or mixture, read-out: Solubility (approx. at 25° C.)): 11400 µg/mL (≈ 22000 µM)
Aqueous solubility (in words) ([5]; summary of Table 8): nearly insoluble in water
solubility ([5]; water, 25 °C, water, read-out: Solubility (approx. at 25° C.) (HPLC)): 24 µg/mL (≈ 46.3 µM)
CL [6, 14]: A
DP [6, 14]: 0.6%
CL [6, 15]: A↓
DP [6, 15]: 0.6%
CL [6, 16]: A
DP [6, 16]: 1.4%
CL [6, 17]: A↓
DP [6, 17]: 0.9%
CL [6, 18]: A↓
DP [6, 18]: 0.6%
CL [6, 19]: A↓
DP [6, 19]: 0.9%
CL [6, 20]: A↓
DP [6, 20]: 27.0%
CL [6, 21]: A↓
DP [6, 21]: >99%
CL [6, 22]: A
DP [6, 22]: 0.7%
CL [6, 23]: A
DP [6, 23]: 0.6%
CL [6, 24]: A
DP [6, 24]: 0.8%
CL [6, 25]: A
DP [6, 25]: 0.5%
Stability in methanol (in words) ([6]; In methanol): stable
CL [6, 26]: A
DP [6, 26]: 0.6%
DP ([6]; Solid state, 1 week 80° C./175% r.h, Bulk (HPLC)): 0.6%
CL ([6]; Solid state, 1 week 80° C./, Bulk (HPLC)): A
DP ([6]; Unstressed): 0.6%
CL [6, 27]: A
DP [6, 27]: 0.6%
optimum pH for aqueous stability ([6]; aqueous): 5
Aqueous stability at higher pH (in words) ([6]; higher pH (9 and 11)): decomposes
Hygroscopicity from moisture sorption profiles (in words) [7]: non-hygroscopic
Hygroscopicity: After 1 day at 80% r.h. ([7]; 80% r.h., 1 day, 25° C.): 0
Hygroscopicity: After 1 day at 95% r.h. ([7]; 95% r.h., 1 day, 25° C.): 0.1
Loss on drying by TG ([8]; As is): 3.3%
Thermogravimetry (weight loss in %) ([8]; Heating rate 20 K/min): 3.3%
Effect of grinding [9]: No change
Aqueous solubility (in words) ([10]; Water): practically insoluble in water
solubility at 5 days ([10]; aqueous buffer, pH 2.19): 125 µg/mL (≈ 242 µM)
solubility at 5 days ([10]; aqueous buffer, pH 3.75): 1.9 µg/mL (≈ 3.66 µM)
solubility at 5 days ([10]; aqueous buffer, pH 5.78): 0.4 µg/mL (≈ 0.772 µM)
solubility at 5 days ([10]; aqueous buffer, pH 10.13): 0.3 µg/mL (≈ 0.579 µM)
solubility at 5 days ([10]; aqueous buffer, pH 11.00): 0.3 µg/mL (≈ 0.579 µM)
solubility at 5 days ([10]; simulated gastric fluid, pH 1.36): 709 µg/mL (≈ 1370 µM)
Intrinsic dissolution rate ([11]; HCl 0.1N): 0 mg min^−1 cm^−2
Intrinsic dissolution rate ([11]; Water): 0 mg min^−1 cm^−2
solubility [12, 28]: 9 µg/mL
solubility at 48 h [12, 28]: 4 µg/mL
pH ([12]; pH of the saturated aqueous solutions): 5.235
